This is an account of results in patent EP2082991A1, “Method of Water Treatment” (Thermphos Trading GmbH, priority 2008, dated 2009).

For data set [1] the following is noted: 1 % active acid phosphonate in synthetic North Sea water, pH 5.5, 140 °C, one week. On the procedure:
Thermal stability assessment.
This is a test to assess the thermal stability of phosphonates in the presence of synthetic North Sea water. The test is carried out by submitting mixtures of North Sea water and phosphonates stabilized at pH 5.5 to a one week heating at 140 °C. The thermal degradation is determined by ^31P NMR analysis.

For data set [2] the following is noted: minimum phosphonate concentration for 100% calcium carbonate scale inhibition; 22 hours at 50°C, pH 9.
Method: Testing method for calcium carbonate scale inhibition.
This is a static test to evaluate the efficiency of phosphonates in preventing calcium carbonate scale inhibition in industrial water treatment conditions. The test is carried out by determining the amount of CaCO3 that has precipitated after 22 hours at 50°C in a 50/50 mixture of cationic and anionic waters with the test phosphonates at 5 different concentrations. The amount of soluble Ca ions is analyzed by titration. Result indicates the % Ca scale inhibition provided by the 5 phosphonate concentrations. Reported results give the minimum phosphonate concentration for 100% calcium carbonate scale inhibition.
• Cationic and anionic waters are prepared at pH 9.
For data set [3] the following is noted: minimum concentration for full scale inhibition; 22 hours at 90 °C, pH 6; tested at 15, 30, 50, 70 and 100 ppm. As to the method:
Barium sulphate scale inhibition.
This is a static test to evaluate the efficiency of phosphonates in preventing barium and strontium scale inhibition in oil field scaling conditions. The test is carried out by determining the amount of BaSO4 and SrSO4 that has precipitated after 22 hours at 90 °C in a 50/50 mixture of synthetic North Sea water and Formation water containing the phosphonates to be tested at 5 different concentrations. The amount of soluble Ba and Sr ions is determined by ICP. The results stand for the minimum phosphonate concentration for 100 % barium sulphate scale inhibition or give the scale inhibition at 100 ppm loading of phosphonate.
Test details are as follows:
Synthetic North Sea water:
• synthetic North Sea and Formation water are prepared having a pH of 6. These water solutions are preheated at 90 °C before starting the test. […] Then add to this glass bottle 50 ml of Formation water; • also prepare one blank solution by mixing 50 ml of North Sea water with 50 ml of Formation water; • put the sample bottles in an oven for 22 hours at 90 °C; • after 22 hours, take 3 ml of each test solution from the surface, filter through a 0.45 µm Millipore filter and add to a stabilizing solution.

The conditions of data set [4]: 22 hours at 90 °C, pH 5.5. On the procedure: Brine/sea water compatibility.
This test assesses sea water compatibility of the phosphonates added at: 100; 1000; 10000; and 50000 ppm to North Sea water after 22 hours at 90 °C. Calcium left in solution is measured by ICP.
Test details are as follows: • prepare synthetic North Sea water at pH 5.5; • add the phosphonate at 100, 1000, 10000 and 50000 ppm active acid to the synthetic North Sea water solution; • prepare 5 blank solutions made by mixing the required amount of distilled water with North Sea water to obtain the same dilution as obtained by the addition of […], 1000, 10000 and 50000 ppm active acid phosphonate to the synthetic North Sea water solution; • the phosphonate samples with the respective phosphonates at the 4 concentrations as well as the 5 blanks are stored in an oven at 90 °C for a period of 22-24 hours; • upon completion of the test, the samples are observed visually; • after completion of the test, the pH values are being carefully monitored and 50 ml are drawn from each sample, filtered through a […] Millipore filter and stabilized at pH<2 by addition of 37 % aqueous hydrochloric acid; • Ca tolerance values are calculated as follows: % Ca tolerance = (Vi)/(V0) × 100 [formula] • where V0 = ppm Ca found in the blank solution; and • V1 = ppm Ca found in the solution with the phosphonate.

The nature of data set [5]: Peroxide stabilization procedure (perborate/TAED with iron, 40°C, thiosulphate titration). As to conditions: 35 ppm phosphonate. On the procedure: Peroxide stabilization procedure
In a 250 ml glass bottle filled with 200ml deionised water stabilized at 40°C add the following ingredients: […], 35ppm of the tested bleach stabilizer, 0.53g of sodium bicarbonate, 0.42g of sodium carbonate, 0.14g of sodium perborate tetrahydrate and 0.06g of tetra-acetyl ethylene diamine (TAED). Dissolve these ingredients in the water by using an ultrasonic bath. After one minute of such treatment the bottle is transferred to the water bath set at 40°C and samples (10 ml each) are taken from the test bottle 2, 6,10,15,20 and 30 minutes thereafter. To these samples are added 10ml of 1M potassium iodide and 10ml of 20% aqueous sulphuric acid before immediate titration with a standardized 0.01N thiosulphate solution.

The mark [6] stands for this setting: 100 ppm phosphonate in North Sea water.
Setting [7] is: 1000 ppm phosphonate in North Sea water.
The mark [8] stands for this setting: 10000 ppm phosphonate in North Sea water.
[9] abbreviates: 50000 ppm phosphonate in North Sea water.

Like-named read-outs stand apart in the source and are kept apart here.

Take `O=P(O)(O)CN(CCN(CP(=O)(O)O)CP(=O)(O)O)CCN(CP(=O)(O)O)CP(=O)(O)O` [Dequest 2066A, diethylene triaminopentamethylene phosphonate]: in data set [1], the “Thermal Stability at 140°C 1 week Decomposition in %” value (shortened to “Thermal Stability … in %”) was 24%. In addition, in data set [2], the “Ca Scale Inhibition” value was 2 ppm full scale. Also, the “Ba Scale Inhibition: ppm phosphonate needed for 100% BaSO4 scale inhibition” value in data set [3] amounted to 15ppm full scale. Besides, the “Ca Tolerance in %” value in data set [4] (setting [6]) worked out at 100%; in data set [4] (setting [7]), 89%; in data set [4] (setting [8]) it was 24%; in data set [4] (setting [9]) it was 100%.
For the compound `O=P([O-])(O)CN(CCN(CCN(CP(=O)(O)O)CP(=O)(O)O)CP(=O)(O)O)CP(=O)(O)O.[Na+]` [Dequest 2066], the “% remaining act.oxygen” value in data set [5] (0 min) was 100%; in data set [5] (2 min), 100%; in data set [5] (6 min), 99%; in data set [5] (10 min) it was 97%; in data set [5] (15 min), 95%; in data set [5] (20 min), 94%. Besides, the “% remaining act.oxygen” value in data set [5] (30 min) was 90%.
On to `O=P(O)(O)CN(CCO)CP(=O)(O)O` [HEIBMPA, 2-Hydroxy ethyl imino bis (methylene phosphonic acid)], for which the “Thermal Stability … in %” value in data set [1] amounted to 19%. In data set [3], the “Ba Scale Inhibition: ppm phosphonate needed for 100% BaSO4 scale inhibition” value is 30ppm full scale. Further, the “Ca Tolerance in %” value in data set [4] (setting [6]) is on record as 100%; in data set [4] (setting [7]) it was 79%; in data set [4] (setting [8]) it was 100%; in data set [4] (setting [9]), 100%.
As to `O=P(O)(O)CN(CCCCC(CCCN(CP(=O)(O)O)CP(=O)(O)O)CN(CP(=O)(O)O)CP(=O)(O)O)CP(=O)(O)O` (centres unmarked) [AMODHMPA, 4-Aminomethyl 1,8-octane diamine hexa (methylene phosphonic acid)], the “Thermal Stability … in %” value in data set [1] was 8.8%. In addition, the “Ba Scale Inhibition: ppm phosphonate needed for 100% BaSO4 scale inhibition” value in data set [3] is on record as 30ppm full scale. Further, the “Ca Tolerance in %” value in data set [4] (setting [6]) came to 99%; in data set [4] (setting [7]), 83%; in data set [4] (setting [8]), 21%; in data set [4] (setting [9]), 100%.
